According to US20240293553A1, “P-SELECTIN INHIBITORS AND USES THEREOF” (Beth Israel Deaconess Medical Center, Inc., priority 2021, published 2024):
Several values for one entry are separate records, joined by “and”; a condition that tells them apart may be missing. Identical values can stand only once. Like-named read-outs stand apart in the source and are kept apart here. Square brackets hold non-standard residues; d marks the D form. Ends that are not written are not given here. Peptide text beside a SMILES is read from it. * marks the point of attachment. X1 = CC(=O)N[C@H]1[C@H](OCCn2cc(C*)nn2)O[C@H](CO)[C@@H](O[C@@H]2O[C@H](CO)[C@H](O)[C@H](O[C@]3(C(=O)O)C[C@H](O)[C@@H](NC(C)=O)[C@H]([C@H](O)[C@H](O)CO)O3)[C@H]2O)[C@@H]1O[C@@H]1O[C@@H](C)[C@@H](O)[C@@H](O)[C@@H]1O; Phe(4-CH2SO3H) = N[C@@H](Cc1ccc(CS(=O)(=O)O)cc1)C(=O)O

Assays:
human P-selectin [1] = experiment: Glycopeptide microarray binding assay, P-selectin; settings: human P-selectin 5 μg/mL; compounds at 50 μM
Protocol: (§1) For a multi-panel experiment on a single slide, the array layout was designed using Piezoarray software according to the dimension of a standard 14-chamber adaptor. The adaptor was applied on the slide to separate a single slide to 14 chambers sealed from each other during the experiment. All glycopeptides and control samples were printed on an NHS-activated glass slide in phosphate buffer (300 mM sodium phosphates, pH 8.5). The average spot volume was within 10% variation (intra-tip) of 0.33 nL. The average spot size was 100 μm. […] These AEAB derivatives and control biotin-NHNH2, all at 50 μM concentration, were printed on the microarray as controls and reference standards. After printing, the slide was placed in a high moisture chamber at 50° C. and incubated for 1 h. The slide was subsequently washed and blocked with 50 mM ethanolamine in 0.1 M Tris buffer (pH 8.0) for 1 h, dried by centrifugation, and stored desiccated at −20° C. prior to use. […] The scanned images were analyzed using ScanArray Express software.
(§2) The binding affinity of G4 towards P-selectin was initially screened using microarray technology. G4 along with 11 additional structural variants and synthetic intermediates, as well as […] glycan standards (sLe^x, NA2, NA2,3, NA2,6, asialobiantennary, asialotetra-saccharide) were printed on an NHS-activated glass slide (FIGS. 7A-7C). The slide was then incubated with a recombinant immunoglobulin (Ig) chimera of P-sel (5 μg mL^−1) or monoclonal antibodies, PL1, specific to the N-terminal PSGL-1 peptide sequence, CHO131, specific to the Core 2 O-glycan terminated with sLe^X, or HECA-452, specific to sLe^x. The array was then washed and incubated with Alexa-488-labelled anti-human IgG antibody (5 μg/mL). […] Of note, the PL1 epitope spans residues 49-62, which includes the key sequence -L-P-E-T-E-P- (84). Thus, modification of the key T residue within the PL1 epitope alters PL1 binding, but not P-selectin binding. Binding of glycopeptide mimics was Ca2^+ dependent and inhibited by EDTA.

[2] = system: platelet-leukocyte aggregates; experiment: Platelet-leukocyte aggregation in human whole blood (PAR1-activating peptide), flow cytometry; assay type: cell-based; settings: 120 μM
Protocol: (§3) Platelet-leukocyte aggregates were quantified in whole blood using dual-label flow cytometry (CytoFlex LX, Beckman Coulter). […] Platelet-leukocyte aggregates were quantified by two-color flow cytometry by incubating human samples with anti-CD45-APC (BD Biosciences) and anti-CD42a-FITC (BD Biosciences) and mouse samples with anti-CD45-eFluor506 (Invitrogen), anti-CD11b-APC (BD Biosciences), anti-Ly-6G-PE (BD Biosciences), and anti-CD41-FITC (BD Biosciences). […] Inhibition experiments were conducted in triplicate.
(§4) PSGL-1/P-selectin binding are responsible for the generation of platelet-leukocyte aggregates, which leads to the release of neutrophil extracellular traps and other procoagulant factors, as well as the infiltration of leukocytes (86, 87).

in vivo = settings: C57BL/6, mouse, iv, 8 umol/kg
Protocol: The supernatant (80 μL) was dried in vacuo, reconstituted in nanopure water (32 μL), and an aliquot (2 μL) was injected for pre-concentration at a flow rate of 5 μL/min using an UltiMate 3000 RSLCnano ultra-high-performance liquid chromatography (UHPLC) system (Dionex) coupled to an Orbitrap Fusion Lumos mass spectrometer (Thermo Fisher Scientific). […] Following in-source fragmentation (ISF), m/z 1121.09 (z=3) was used as the quantifying peptide. Peak areas from the extracted chromatograms were used for quantification. […] Compound half-life was determined using non-compartmental analysis.

[3] = system: PL1, a monoclonal antibody specific to the N-terminal PSGL-1 peptide sequence; experiment: Glycopeptide microarray binding assay, PL1
Protocol: as §1
(§5) The binding affinity of G4 towards P-selectin was initially screened using microarray technology. G4 along with 11 additional structural variants and synthetic intermediates, as well as five glycan standards (sLe^x, NA2, NA2,3, NA2,6, asialobiantennary, asialotetra-saccharide) were printed on an NHS-activated glass slide (FIGS. 7A-7C). […]

[4] = system: platelet-leukocyte aggregates; experiment: Platelet-leukocyte aggregation in mouse whole blood (PAR4-activating peptide), flow cytometry; assay type: cell-based; settings: 120 μM
Protocol: as §3, §4

[5] = molecular target: T1, murine P-selectin-Fc chimera (Mus musculus, UniProt Q01102); experiment: Flow cytometry inhibition of P-selectin-Fc chimera binding to murine leukocytes; assay type: cell-based; settings: P-selectin-Fc chimera 3 μg/mL
T1 construct: purchased R&D Systems
T1 sequence (Q01102 with tags, fused parts or gaps limits assumed): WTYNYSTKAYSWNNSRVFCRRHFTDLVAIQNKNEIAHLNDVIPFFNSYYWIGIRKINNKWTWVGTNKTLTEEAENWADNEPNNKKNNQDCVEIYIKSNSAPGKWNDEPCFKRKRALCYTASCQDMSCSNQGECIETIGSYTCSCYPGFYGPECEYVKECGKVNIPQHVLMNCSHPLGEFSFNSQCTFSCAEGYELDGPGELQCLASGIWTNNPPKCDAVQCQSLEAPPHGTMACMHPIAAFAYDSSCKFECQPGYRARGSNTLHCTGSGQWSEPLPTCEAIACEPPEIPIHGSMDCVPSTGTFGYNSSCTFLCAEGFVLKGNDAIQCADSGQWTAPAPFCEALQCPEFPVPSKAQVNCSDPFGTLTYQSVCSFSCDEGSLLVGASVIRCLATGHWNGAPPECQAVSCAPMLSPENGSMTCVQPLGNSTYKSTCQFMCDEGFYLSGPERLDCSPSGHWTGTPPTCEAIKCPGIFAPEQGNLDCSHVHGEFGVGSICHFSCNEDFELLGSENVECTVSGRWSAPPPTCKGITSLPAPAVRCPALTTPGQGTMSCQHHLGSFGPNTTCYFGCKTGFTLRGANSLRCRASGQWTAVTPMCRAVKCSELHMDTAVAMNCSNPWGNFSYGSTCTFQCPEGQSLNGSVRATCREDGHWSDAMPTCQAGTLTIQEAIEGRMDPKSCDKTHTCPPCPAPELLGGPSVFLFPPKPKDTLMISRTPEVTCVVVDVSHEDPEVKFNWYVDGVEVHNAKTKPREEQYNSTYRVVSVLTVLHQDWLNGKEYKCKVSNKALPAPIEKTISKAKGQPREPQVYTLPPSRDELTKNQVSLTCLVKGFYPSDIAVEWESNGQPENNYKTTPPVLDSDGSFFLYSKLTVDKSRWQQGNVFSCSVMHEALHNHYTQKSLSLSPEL
Protocol: Flow cytometry was used to quantify binding inhibition of P-selectin-Fc chimeras to human and murine leukocytes. Heparinized whole mouse blood was collected via cardiac puncture and human blood from healthy adult volunteers was collected in citrate. Leukocytes were isolated by centrifugation at 800 g for 10 min at room temperature, platelets removed by centrifugation at 120 g for 10 min at room temperature, and red blood cells lysed using red blood cell (RBC) lysis buffer (eBiosciences). […] The interaction of P-selectin with human and murine monocytes and neutrophils was analyzed by flow cytometry (CytoFlex LX, Beckman Coulter) and quantified as percent inhibition using FlowJo. Inhibition experiments were conducted in triplicate.
Binding of P-selectin was detected with phycoerythrin (PE)-conjugated anti-Fc antibody and quantified as mean fluorescent intensity and plotted as percent inhibition.

[6] = system: CHO131, a monoclonal antibody specific to the Core 2 O-glycan terminated sLe^x; experiment: Glycopeptide microarray binding assay, CHO131
Protocol: as §1, §5

[7] = system: HECA-452, a monoclonal antibody specific to sLe^x; experiment: Glycopeptide microarray binding assay, HECA-452
Protocol: as §1, §2

P-selectin [8] = molecular target: T2, P-selectin (Homo sapiens, UniProt P16109); settings: literature values; cited from earlier work
T2 sequence (P16109 42-830): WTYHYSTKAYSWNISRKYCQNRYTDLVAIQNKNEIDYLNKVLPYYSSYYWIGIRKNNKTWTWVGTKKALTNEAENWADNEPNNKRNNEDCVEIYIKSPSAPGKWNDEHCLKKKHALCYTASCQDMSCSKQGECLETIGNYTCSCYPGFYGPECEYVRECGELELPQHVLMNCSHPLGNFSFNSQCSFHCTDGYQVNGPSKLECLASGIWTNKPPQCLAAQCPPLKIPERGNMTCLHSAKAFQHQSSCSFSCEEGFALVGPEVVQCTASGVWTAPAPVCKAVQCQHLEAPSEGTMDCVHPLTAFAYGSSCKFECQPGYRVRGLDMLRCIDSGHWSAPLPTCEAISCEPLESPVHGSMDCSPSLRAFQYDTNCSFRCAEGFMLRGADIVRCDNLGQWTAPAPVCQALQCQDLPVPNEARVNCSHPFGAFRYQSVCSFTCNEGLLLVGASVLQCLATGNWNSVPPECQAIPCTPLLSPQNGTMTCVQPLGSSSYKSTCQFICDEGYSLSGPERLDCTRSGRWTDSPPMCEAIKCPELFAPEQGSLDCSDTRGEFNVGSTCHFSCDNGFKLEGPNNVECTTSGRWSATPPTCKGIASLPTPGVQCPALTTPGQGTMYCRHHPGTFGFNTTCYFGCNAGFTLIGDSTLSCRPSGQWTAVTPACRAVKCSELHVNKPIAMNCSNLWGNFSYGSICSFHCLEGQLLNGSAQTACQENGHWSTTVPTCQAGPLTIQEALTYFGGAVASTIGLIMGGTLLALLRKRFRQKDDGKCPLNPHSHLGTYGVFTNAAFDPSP

human P-selectin [9] = experiment: Biacore surface plasmon resonance binding assay (biotinylated ligand captured, P-selectin-Ig flowed); settings: human P-selectin-Ig 0.4-100 nM
Protocol: Biotinylated G4 was first captured quantitatively on a streptavidin-coated sensor chip (GE Healthcare). Different amounts of P-selectin-Ig chimera (P-Sel-Ig) were incubated in the wells (0.4-100 nM) and bound P-selectin detected using fluorescently labelled anti-human IgG. PL1 and CHO131 were used to confirm the immobilization step and to compare the relative amount of glycopeptide on the chip. Bound monoclonal antibodies and P-selectin were removed from the sensor chip by injecting 10 mM glycine-HCl, pH 2.0 and 50 mM EDTA, respectively, at 20 μL/min for 30 s. The kinetic parameters were obtained by plotting the curves using a 1:1 binding model provided by the Biacore evaluation software.

P-selectin [10] = molecular target: T2, P-selectin; settings: reported values; cited from earlier work
venous thrombus = experiment: Murine model of non-occlusive venous thrombosis (electrolytic injury of the inferior vena cava); assay type: in vivo, C57BL/6 mice; settings: 48 h after injury; glycopeptide 8 μmol/kg IV, LMWH (enoxaparin) 6 mg/kg SC
Text: Venous side branches were ligated or cauterized, while posterior branches were left patent. A 25-gauge stainless steel needle, attached to a silver-coated copper wire was inserted into the exposed caudal vena cava and positioned against the anterior wall (anode). […] Subsequently, the needle was removed and a cotton swab held in gentle contact with the puncture site to prevent bleeding.

Molecule: CC(=O)N[C@H]1[C@H](OCCn2cc(CO[C@H](C)[C@H](NC(=O)[C@H](CCC(=O)O)NC(=O)[C@@H]3CCCN3C(=O)[C@H](CC(C)C)NC(=O)[C@H](Cc3ccccc3)NC(=O)[C@H](CC(=O)O)NC(=O)[C@H](Cc3ccc(CS(=O)(=O)O)cc3)NC(=O)[C@H](CC(=O)O)NC(=O)[C@H](CC(C)C)NC(=O)[C@H](Cc3ccc(CS(=O)(=O)O)cc3)NC(=O)[C@H](CCC(=O)O)NC(=O)[C@H](Cc3ccc(CS(=O)(=O)O)cc3)NC(=O)[C@H](CCC(=O)O)NC(=O)[C@H](CCCCN)NC(C)=O)C(=O)N[C@@H](CCC(=O)O)C(=O)N3CCC[C@H]3C(=O)N[C@@H](CC(C)C)C(=O)O)nn2)O[C@H](CO)[C@@H](O[C@@H]2O[C@H](CO)[C@H](O)[C@H](O[C@]3(C(=O)O)C[C@H](O)[C@@H](NC(C)=O)[C@H]([C@H](O)[C@H](O)CO)O3)[C@H]2O)[C@@H]1O[C@@H]1O[C@@H](C)[C@@H](O)[C@@H](O)[C@@H]1O [G4, KEF*EF*LDF*DFLPET(Neu5Acα2-3Galβ1-4(Fucal-3)GlcNAc)EPL] (Ac-KE[Phe(4-CH2SO3H)]E[Phe(4-CH2SO3H)]LD[Phe(4-CH2SO3H)]DFLPET(X1)EPL-OH)
- Binding to P-selectin on microarray (human P-selectin [1]): strongly bound
- Inhibition of human platelet-monocyte aggregates [2]: 33%
- Inhibition of human platelet-neutrophil aggregates [2]: 28%
- half-life (in vivo): 13.2 ± 5.04 min
- Binding of PL1 on microarray [3]: neither PL1 or CHO131 bound
- Inhibition of murine platelet-monocyte aggregates [4]: 41%
- Inhibition of murine platelet-neutrophil aggregates [4]: 38%
- IC50 ([5]; murine monocytes, read-out: IC50, P-selectin binding to murine monocytes): 10 µM
- IC50 ([5]; murine neutrophils, read-out: IC50, P-selectin binding to murine neutrophils): 10 µM
- Binding of CHO131 on microarray [6]: neither PL1 or CHO131 bound
- Binding of HECA-452 on microarray [7]: strongly bound

Molecule: C[C@@H]1O[C@@H](O[C@@H]2[C@@H](NC(=O)c3cc(=O)[nH]c(=O)[nH]3)C[C@@H](C(=O)NCCNC(=O)COCCOCC(=O)Nc3cc(S(=O)(=O)O)cc4cc(S(=O)(=O)O)cc(S(=O)(=O)O)c34)C[C@H]2O[C@@H]2O[C@H](CO)[C@H](O)[C@H](O[C@@H](CC3CCCCC3)C(=O)O)[C@H]2OC(=O)c2ccccc2)[C@@H](O)[C@H](O)[C@@H]1O [GMI-1070]
- IC50 (P-selectin [8]): 423 µM

Molecule: O=C(O)c1c(O)c(C2(c3ccc(Cl)cc3)CC2)nc2c(C(F)(F)F)cccc12 [PSI-421, 2-[1-(4-chlorophenyl)cyclopropyl]-3-hydroxy-8-(trifluoromethyl)quinoline-4-carboxylic acid]
- IC50 (P-selectin [8]): 225 µM

Molecule: EY*EY*LDY*DFLPET(Neu5Acα2-3Galβ1-4(Fucal-3)GlcNAcβ1-6Galβ1-3GalNAcα)EPPEM (EYEYLDYDFLPET(Neu5Acα2‑3Galβ1‑4(Fucal-3)GlcNAcβ1‑6Galβ1‑3GalNAcα)EPPEM; not fully specified (residues 2, 4, 7)) [GSP-6]
- Binding to P-selectin on microarray (human P-selectin [1]): strongly bound
- Binding of HECA-452 on microarray [7]: strongly bound

Molecule: KEF*EF*LDF*DFLPET(Neu5Acα2-3Galβ1-4(Fucal-3)GlcNAcβ1-6(Galβ1-3)GalNAcα)EPL (KEFEFLDFDFLPET(Neu5Acα2‑3Galβ1‑4(Fucal-3)GlcNAcβ1‑6(Galβ1-3)GalNAcα)EPL; not fully specified (residues 3, 5, 8)) [GSnP-6, previously reported glycosulfonopeptide P-selectin antagonist, reference compound]
- Binding to P-selectin on microarray (human P-selectin [1]): strongly bound
- Kd (human P-selectin [9]): 0.027 µM
- Kd (P-selectin [10]): 0.022 µM and 0.027 µM
- Binding of HECA-452 on microarray [7]: strongly bound

Molecule: enoxaparin
- venous thrombus formation / thrombus weight versus saline vehicle (venous thrombus): significant reduction
